Assays:
[1] = target: baculovirus-expressed JAK2 kinase (Homo sapiens, UniProt O60674); assay: biochemical; details: 0.2 μM ATP; read-out: JAK2 Potency
Summary of the method: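 IC50 derived by variable-slope sigmoidal fit of percent inhibition against log compound concentration. Baculovirus-expressed JAK2 (15 ng/mL) phosphorylated a plate-bound biotinylated 15-mer peptide for 20 min at room temperature; detection by time-resolved fluorescence.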

[2] = target: baculovirus-expressed ALK (Homo sapiens, UniProt Q9UM73); assay: ALK kinase inhibition, TRF/ELISA; assay type: biochemical; details: read-out: ALK Potency
Summary of the method: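 Eu-PT66 anti-phosphotyrosine TRF read-out measured phosphorylation of plate-bound GST-PLC-γ (coated at 10 μg/mL). The phosphorylation was driven by 30 ng/mL ALK for 15 minutes at 37° C.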

baculovirus-expressed JAK2 kinase, sequence (O60674 whole entry): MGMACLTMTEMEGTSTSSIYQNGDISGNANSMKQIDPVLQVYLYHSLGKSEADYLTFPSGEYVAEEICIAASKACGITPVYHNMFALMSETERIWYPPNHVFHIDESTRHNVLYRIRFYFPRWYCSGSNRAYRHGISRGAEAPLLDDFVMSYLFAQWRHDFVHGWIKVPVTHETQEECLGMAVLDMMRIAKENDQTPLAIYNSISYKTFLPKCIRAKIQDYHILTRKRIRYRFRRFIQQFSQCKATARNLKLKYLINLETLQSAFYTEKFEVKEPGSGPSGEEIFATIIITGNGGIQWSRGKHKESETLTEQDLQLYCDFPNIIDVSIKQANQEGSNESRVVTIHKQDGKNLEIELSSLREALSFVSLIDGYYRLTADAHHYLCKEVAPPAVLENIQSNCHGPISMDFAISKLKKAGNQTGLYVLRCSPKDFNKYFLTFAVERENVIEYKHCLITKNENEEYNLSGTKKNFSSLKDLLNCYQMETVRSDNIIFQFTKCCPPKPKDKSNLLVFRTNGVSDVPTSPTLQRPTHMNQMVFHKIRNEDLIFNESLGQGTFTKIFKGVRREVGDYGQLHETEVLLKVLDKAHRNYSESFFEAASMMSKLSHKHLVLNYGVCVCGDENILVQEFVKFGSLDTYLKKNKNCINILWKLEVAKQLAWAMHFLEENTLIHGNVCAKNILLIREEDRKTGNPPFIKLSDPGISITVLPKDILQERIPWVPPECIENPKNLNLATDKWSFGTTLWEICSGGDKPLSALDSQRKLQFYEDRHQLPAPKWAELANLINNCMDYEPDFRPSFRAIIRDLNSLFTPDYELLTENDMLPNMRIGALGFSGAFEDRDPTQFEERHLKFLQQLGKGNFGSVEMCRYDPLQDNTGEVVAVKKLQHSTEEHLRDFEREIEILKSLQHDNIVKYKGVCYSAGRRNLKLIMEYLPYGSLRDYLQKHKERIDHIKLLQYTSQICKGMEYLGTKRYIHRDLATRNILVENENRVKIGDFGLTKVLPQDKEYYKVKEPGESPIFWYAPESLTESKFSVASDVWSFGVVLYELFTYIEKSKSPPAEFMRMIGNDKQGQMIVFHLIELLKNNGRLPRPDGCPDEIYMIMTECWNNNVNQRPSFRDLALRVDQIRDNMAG
baculovirus-expressed ALK, sequence (Q9UM73 19-1620): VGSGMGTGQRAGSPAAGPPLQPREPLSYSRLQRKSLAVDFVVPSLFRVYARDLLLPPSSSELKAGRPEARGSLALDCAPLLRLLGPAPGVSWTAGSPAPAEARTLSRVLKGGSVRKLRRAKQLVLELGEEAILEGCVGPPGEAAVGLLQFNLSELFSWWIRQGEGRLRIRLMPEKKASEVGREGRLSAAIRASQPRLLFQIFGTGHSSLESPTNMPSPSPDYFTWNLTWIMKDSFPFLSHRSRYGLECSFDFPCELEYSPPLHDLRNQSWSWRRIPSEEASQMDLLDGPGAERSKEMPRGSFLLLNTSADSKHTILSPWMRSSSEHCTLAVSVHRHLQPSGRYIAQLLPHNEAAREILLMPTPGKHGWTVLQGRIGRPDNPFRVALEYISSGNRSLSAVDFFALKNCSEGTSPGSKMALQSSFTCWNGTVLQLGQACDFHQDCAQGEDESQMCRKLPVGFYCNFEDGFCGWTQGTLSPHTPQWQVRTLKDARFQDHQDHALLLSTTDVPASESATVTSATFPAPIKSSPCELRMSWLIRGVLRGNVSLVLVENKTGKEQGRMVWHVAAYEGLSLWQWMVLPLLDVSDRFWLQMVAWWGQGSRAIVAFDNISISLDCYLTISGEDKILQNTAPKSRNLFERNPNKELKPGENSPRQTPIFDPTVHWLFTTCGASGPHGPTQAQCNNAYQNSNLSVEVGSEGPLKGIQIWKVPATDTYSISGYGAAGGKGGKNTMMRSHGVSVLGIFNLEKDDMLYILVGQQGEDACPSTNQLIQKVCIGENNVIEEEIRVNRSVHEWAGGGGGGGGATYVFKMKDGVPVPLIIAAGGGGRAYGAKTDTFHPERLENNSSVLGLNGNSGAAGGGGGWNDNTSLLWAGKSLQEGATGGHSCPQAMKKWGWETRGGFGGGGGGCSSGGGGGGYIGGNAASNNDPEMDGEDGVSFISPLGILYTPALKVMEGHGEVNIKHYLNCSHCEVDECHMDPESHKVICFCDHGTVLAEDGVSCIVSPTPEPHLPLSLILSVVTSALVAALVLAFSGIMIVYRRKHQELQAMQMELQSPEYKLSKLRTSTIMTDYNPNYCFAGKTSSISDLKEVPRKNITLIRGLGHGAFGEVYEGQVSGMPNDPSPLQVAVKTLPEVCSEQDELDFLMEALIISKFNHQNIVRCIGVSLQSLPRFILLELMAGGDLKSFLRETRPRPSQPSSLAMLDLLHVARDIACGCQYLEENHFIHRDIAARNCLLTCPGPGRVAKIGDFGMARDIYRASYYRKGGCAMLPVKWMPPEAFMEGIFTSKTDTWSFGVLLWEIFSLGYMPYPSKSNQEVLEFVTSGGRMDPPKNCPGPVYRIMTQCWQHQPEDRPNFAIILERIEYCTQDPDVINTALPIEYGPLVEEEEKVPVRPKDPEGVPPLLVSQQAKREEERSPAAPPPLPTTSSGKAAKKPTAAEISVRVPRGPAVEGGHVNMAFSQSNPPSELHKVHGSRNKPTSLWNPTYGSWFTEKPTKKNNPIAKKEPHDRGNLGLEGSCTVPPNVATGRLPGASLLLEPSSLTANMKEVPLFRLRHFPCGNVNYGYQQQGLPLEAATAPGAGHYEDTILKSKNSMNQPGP

SMILES | IC50 [1] [nM] | IC50 [2] [nM]
COc1cc(N2CCN(C)CC2)ccc1-c1nc2c(N[C@H]3[C@@H](C(=O)N(C)C)[C@@H]4C=C[C@H]3C4)c(Cl)cnc2[nH]1 [Compound CXCVII, (1S,2S,3R,4R)-3-(6-chloro-2-(2-methoxy-4-(4-methylpiperazin-1-yl)phenyl)-3H-imidazo[4,5-b]pyridin-7-ylamino)-N,N-dimethylbicyclo[2.2.1]hept-5-ene-2-carboxamide] | 100 to 1000 | < 100
CC12CCC(Nc3c(Cl)cnc4[nH]c(-c5ccc(N6CCOCC6)cc5)nc34)(CC1=O)C2(C)C (centres unmarked) [Compound CXCVIII, 4-(6-chloro-2-(4-morpholinophenyl)-3H-imidazo[4,5-b]pyridin-7-ylamino)-1,7,7-trimethylbicyclo[2.2.1]heptan-2-one] | < 100 | > 10000
NC(=O)[C@@H]1[C@H](Nc2c(Br)cnc3[nH]c(-c4ccc5c(c4)CCC4(CCNCC4)O5)nc23)[C@H]2C=C[C@@H]1C2 [Compound CXIV, (1S,2S,3R,4R)-3-[(6-bromo-2-spiro[chromane-2,4′-piperidine]-6-yl-3H-imidazo[4,5-b]pyridin-7-yl)amino]bicyclo[2.2.1]hept-5-ene-2-carboxamide] | < 100 | < 100
NC(=O)[C@@H]1[C@H](Nc2c(Cl)cnc3[nH]c(-c4cccc(Cl)c4)nc23)[C@H]2C=C[C@@H]1C2 [Compound CXL, (1S,2S,3R,4R)-3-[6-Chloro-2-(3-chloro-phenyl)-3H-imidazo[4,5-b]pyridin-7-ylamino]-bicyclo[2.2.1]hept-5-ene-2-carboxylic acid amide] | < 100 | 100 to 1000
NC(=O)[C@@H]1[C@H](Nc2c(Cl)cnc3[nH]c(-c4ccc(Cl)cc4)nc23)[C@H]2C=C[C@@H]1C2 [Compound CXLI, (1S,2S,3R,4R)-3-[6-Chloro-2-(4-chloro-phenyl)-3H-imidazo[4,5-b]pyridin-7-ylamino]-bicyclo[2.2.1]hept-5-ene-2-carboxylic acid amide] | < 100 | 100 to 1000
NC(=O)[C@@H]1[C@H](Nc2c(Br)cnc3[nH]c(-c4cccc(Cl)c4)nc23)[C@H]2C=C[C@@H]1C2 [Compound CXLII, (1S,2S,3R,4R)-3-[6-Bromo-2-(3-chloro-phenyl)-3H-imidazo[4,5-b]pyridin-7-ylamino]-bicyclo[2.2.1]hept-5-ene-2-carboxylic acid amide] | < 100 | 100 to 1000
NC(=O)[C@@H]1[C@H](Nc2c(Br)cnc3[nH]c(-c4ccc(Cl)cc4)nc23)[C@H]2C=C[C@@H]1C2 [Compound CXLIII, (1S,2S,3R,4R)-3-[6-Bromo-2-(4-chloro-phenyl)-3H-imidazo[4,5-b]pyridin-7-ylamino]-bicyclo[2.2.1]hept-5-ene-2-carboxylic acid amide] | < 100 | 100 to 1000
N#Cc1cccc(-c2nc3c(N[C@H]4[C@@H](C(N)=O)[C@@H]5C=C[C@H]4C5)c(Cl)cnc3[nH]2)c1 [Compound CXLIV, (1S,2S,3R,4R)-3-[6-Chloro-2-(3-cyano-phenyl)-3H-imidazo[4,5-b]pyridin-7-ylamino]-bicyclo[2.2.1]hept-5-ene-2-carboxylic acid amide] | < 100 | 100 to 1000
NC(=O)[C@@H]1[C@H](Nc2c(Br)cnc3[nH]c(-c4ccccc4Cl)nc23)[C@H]2C=C[C@@H]1C2 [Compound CXLIX, (1S,2S,3R,4R)-3-[6-Bromo-2-(2-chloro-phenyl)-3H-imidazo[4,5-b]pyridin-7-ylamino]-bicyclo[2.2.1]hept-5-ene-2-carboxylic acid amide] | < 100 | 100 to 1000
N#Cc1ccc(-c2nc3c(N[C@H]4[C@@H](C(N)=O)[C@@H]5C=C[C@H]4C5)c(Cl)cnc3[nH]2)cc1 [Compound CXLV, (1S,2S,3R,4R)-3-[6-Chloro-2-(4-cyano-phenyl)-3H-imidazo[4,5-b]pyridin-7-ylamino]-bicyclo[2.2.1]hept-5-ene-2-carboxylic acid amide] | < 100 | 100 to 1000
N#Cc1cccc(-c2nc3c(N[C@H]4[C@@H](C(N)=O)[C@@H]5C=C[C@H]4C5)c(Br)cnc3[nH]2)c1 [Compound CXLVI, (1S,2S,3R,4R)-3-[6-Bromo-2-(3-cyano-phenyl)-3H-imidazo[4,5-b]pyridin-7-ylamino]-bicyclo[2.2.1]hept-5-ene-2-carboxylic acid amide] | < 100 | 100 to 1000
N#Cc1ccc(-c2nc3c(N[C@H]4[C@@H](C(N)=O)[C@@H]5C=C[C@H]4C5)c(Br)cnc3[nH]2)cc1 [Compound CXLVII, (1S,2S,3R,4R)-3-[6-Bromo-2-(4-cyano-phenyl)-3H-imidazo[4,5-b]pyridin-7-ylamino]-bicyclo[2.2.1]hept-5-ene-2-carboxylic acid amide] | < 100 | 100 to 1000
NC(=O)[C@@H]1[C@H](Nc2c(Cl)cnc3[nH]c(-c4ccccc4Cl)nc23)[C@H]2C=C[C@@H]1C2 [Compound CXLVIII, (1S,2S,3R,4R)-3-[6-Chloro-2-(2-chloro-phenyl)-3H-imidazo[4,5-b]pyridin-7-ylamino]-bicyclo[2.2.1]hept-5-ene-2-carboxylic acid amide] | < 100 | 100 to 1000
NC(=O)[C@@H]1[C@H](Nc2c(Cl)cnc3[nH]c(-c4ccc(N5CCOCC5)cc4Cl)nc23)[C@H]2C=C[C@@H]1C2 [Compound CXX, (1S,2S,3R,4R)-3-[6-Chloro-2-(2-chloro-4-morpholin-4-yl-phenyl)-3H-imidazo[4,5-b]pyridin-7-ylamino]-bicyclo[2.2.1]hept-5-ene-2-carboxylic acid amide] | < 100 | < 100
Cc1cc(N2CCOCC2)ccc1-c1nc2c(N[C@H]3[C@@H](C(N)=O)[C@@H]4C=C[C@H]3C4)c(Cl)cnc2[nH]1 [Compound CXXI, (1S,2S,3R,4R)-3-[6-Chloro-2-(2-methyl-4-morpholin-4-yl-phenyl)-3H-imidazo[4,5-b]pyridin-7-ylamino]-bicyclo[2.2.1]hept-5-ene-2-carboxylic acid amide] | < 100 | 100 to 1000
Cc1nn(C)c(N2CCOCC2)c1-c1nc2c(N[C@H]3[C@@H](C(N)=O)[C@@H]4C=C[C@H]3C4)c(Cl)cnc2[nH]1 [Compound CXXII, (1S,2S,3R,4R)-3-[6-Chloro-2-(1,3-dimethyl-5-morpholin-4-yl-1H-pyrazol-4-yl)-3H-imidazo[4,5-b]pyridin-7-ylamino]-bicyclo[2.2.1]hept-5-ene-2-carboxylic acid amide] | 1000 to 10000 | 1000 to 10000
COc1cccc(-c2nc3c(N[C@H]4[C@@H](C(N)=O)[C@@H]5C=C[C@H]4C5)c(Cl)cnc3[nH]2)n1 [Compound CXXIV, (1S,2S,3R,4R)-3-[6-Chloro-2-(6-methoxy-pyridin-2-yl)-3H-imidazo[4,5-b]pyridin-7-ylamino]-bicyclo[2.2.1]hept-5-ene-2-carboxylic acid amide] | < 100 | < 100
NC(=O)[C@@H]1[C@H](Nc2c(Cl)cnc3[nH]c(-c4ccc(F)cc4)nc23)[C@H]2C=C[C@@H]1C2 [Compound CXXIX, (1S,2S,3R,4R)-3-[6-Chloro-2-(4-fluoro-phenyl)-3H-imidazo[4,5-b]pyridin-7-ylamino]-bicyclo[2.2.1]hept-5-ene-2-carboxylic acid amide] | < 100 | 100 to 1000
NC(=O)[C@@H]1[C@H](Nc2c(Cl)cnc3[nH]c(-c4cccc(-n5cccn5)c4)nc23)[C@H]2C=C[C@@H]1C2 [Compound CXXV, (1S,2S,3R,4R)-3-[6-Chloro-2-(3-pyrazol-1-yl-phenyl)-3H-imidazo[4,5-b]pyridin-7-ylamino]-bicyclo[2.2.1]hept-5-ene-2-carboxylic acid amide] | < 100 | 1000 to 10000
NC(=O)[C@@H]1[C@H](Nc2c(Cl)cnc3[nH]c(-c4ccnc(N5CCOCC5)c4)nc23)[C@H]2C=C[C@@H]1C2 [Compound CXXVI, (1S,2S,3R,4R)-3-[6-Chloro-2-(2-morpholin-4-yl-pyridin-4-yl)-3H-imidazo[4,5-b]pyridin-7-ylamino]-bicyclo[2.2.1]hept-5-ene-2-carboxylic acid amide] | < 100 | 100 to 1000
NC(=O)[C@@H]1[C@H](Nc2c(Cl)cnc3[nH]c(-c4ccccc4F)nc23)[C@H]2C=C[C@@H]1C2 [Compound CXXVII, (1S,2S,3R,4R)-3-[6-Chloro-2-(2-fluoro-phenyl)-3H-imidazo[4,5-b]pyridin-7-ylamino]-bicyclo[2.2.1]hept-5-ene-2-carboxylic acid amide] | < 100 | 100 to 1000
NC(=O)[C@@H]1[C@H](Nc2c(Cl)cnc3[nH]c(-c4cccc(F)c4)nc23)[C@H]2C=C[C@@H]1C2 [Compound CXXVIII] | < 100 | 100 to 1000
Cc1cc(N2CCOCC2)ccc1-c1nc2c(N[C@H]3[C@@H](C(N)=O)[C@@H]4C=C[C@H]3C4)c(Br)cnc2[nH]1 [Compound CXXX, (1S,2S,3R,4R)-3-[6-Bromo-2-(2-methyl-4-morpholin-4-yl-phenyl)-3H-imidazo[4,5-b]pyridin-7-ylamino]-bicyclo[2.2.1]hept-5-ene-2-carboxylic acid amide] | < 100 | < 100
NC(=O)[C@@H]1[C@H](Nc2c(Br)cnc3[nH]c(-c4ccccc4F)nc23)[C@H]2C=C[C@@H]1C2 [Compound CXXXI, (1S,2S,3R,4R)-3-[6-Bromo-2-(2-fluoro-phenyl)-3H-imidazo[4,5-b]pyridin-7-ylamino]-bicyclo[2.2.1]hept-5-ene-2-carboxylic acid amide] | < 100 | < 100
NC(=O)[C@@H]1[C@H](Nc2c(Br)cnc3[nH]c(-c4cccc(F)c4)nc23)[C@H]2C=C[C@@H]1C2 [Compound CXXXII, (1S,2S,3R,4R)-3-[6-Bromo-2-(3-fluoro-phenyl)-3H-imidazo[4,5-b]pyridin-7-ylamino]-bicyclo[2.2.1]hept-5-ene-2-carboxylic acid amide] | < 100 | 100 to 1000

Source: patent US9238656B2, “Imidazo[4,5-b]pyridine derivatives as ALK and JAK modulators for the treatment of proliferative disorders” (priority 2012, dated 2016)
